Assays:
Assay type in all cases: in vivo
[1] = tested on: bermudagrass (Cynodon dactylon); assay: Test B pre-/postemergence plant response
Source text: (§1) Seeds of plant species selected from blackgrass (Alopecurus myosuroides), downy bromegrass (Bromus tectorum), green foxtail (Setaria viridis), Italian ryegrass (Lolium multiflorum), wheat (Triticum aestivum), wild oat (Avena fatua), catchweed bedstraw (Galium aparine), bermudagrass (Cynodon dactylon), surinam grass (Brachiaria decumbens), cocklebur (Xanthium strumarium), corn (Zea mays), large crabgrass (Digitaria sanguinalis), woolly cupgrass (Eriochloa villosa), giant foxtail (Setaria faberii), goosegrass (Eleusine indica), johnsongrass (Sorghum halepense), kochia (Kochia scoparia), lambsquarters (Chenopodium album), morningglory (Ipomoea coccinea), eastern black (E.B.) nightshade (Solanum ptycanthum), yellow nutsedge (Cyperus esculentus), pigweed (Amaranthus retroflexus), common ragweed (Ambrosia elation), Russian thistle (Salsola iberica), soybean (Glycine max), common (oilseed) sunflower (Helianthus annuus), and velvetleaf (Abutilon theophrasti) were planted and treated preemergence with test chemicals formulated in a non-phytotoxic solvent mixture which included a surfactant.
(§2) At the same time, plants selected from these crop and weed species and also winter barley (Hordeum vulgare), canarygrass (Phalaris minor), chickweed (Stellaria media) and windgrass (Apera spica-venti) were treated with postemergence applications of some of the test chemicals formulated in the same manner. Plants ranged in height from 2 to 18 cm (1- to 4-leaf stage) for postemergence treatments.
(§3) Plant species in the flooded paddy test consisted of rice (Oryza sativa), umbrella sedge (Cyperus difformis), ducksalad (Heteranthera limosa) and barnyardgrass (Echinochloa crus-galli) grown to the 2-leaf stage for testing. At time of treatment, test pots were flooded to 3 cm above the soil surface, treated by application of test compounds directly to the paddy water, and then maintained at that water depth for the duration of the test. Treated plants and controls were maintained in a greenhouse for 13 to 15 days, after which time all species were compared to controls and visually evaluated. Plant response ratings, summarized in Table B, are based on a scale of 0 to 100 where 0 is no effect and 100 is complete control. A dash (-) response means no test result.

[2] = tested on: downy bromegrass (Bromus tectorum); assay: Test B pre-/postemergence plant response
Source text: as §1, §2, §3

[3] = tested on: common (oilseed) sunflower (Helianthus annuus); assay: Test B pre-/postemergence plant response; conditions: Preemergence
Source text: as §1, §2, §3

[4] = tested on: pigweed (Amaranthus retroflexus); assay: Test B pre-/postemergence plant response
Source text: as §1, §2, §3

[5] = tested on: johnsongrass (Sorghum halepense); assay: Test B pre-/postemergence plant response
Source text: as §1, §2, §3

[6] = tested on: blackgrass (Alopecurus myosuroides); assay: Test B pre-/postemergence plant response
Source text: as §1, §2, §3

[7] = tested on: giant foxtail (Setaria faberii); assay: Test B pre-/postemergence plant response
Source text: as §1, §2, §3

[8] = tested on: goosegrass (Eleusine indica); assay: Test B pre-/postemergence plant response
Source text: as §1, §2, §3

[9] = tested on: velvetleaf (Abutilon theophrasti); assay: Test B pre-/postemergence plant response
Source text: as §1, §2, §3

[10] = tested on: wheat (Triticum aestivum); assay: Test B pre-/postemergence plant response
Source text: as §1, §2, §3

soybean (Glycine max) = assay: Test B pre-/postemergence plant response
Source text: as §1, §2, §3

[11] = tested on: giant foxtail (Setaria faberi); assay: Test A pre-/postemergence plant response
Procedure, shortened: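 Seeds were planted in blended loam soil and sand, then treated preemergence by directed soil spray. At that time, emerged plants (one- to two-leaf, 2–10 cm) received postemergence applications of the same surfactant-containing formulation. Injury was assessed visually on a 0–100 scale after approximately 10 days.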

[12] = 8 g ai/ha, postemergence, 0-100 scale
[13] = Postemergence, 16 g ai/ha, scale 0 to 100
[14] = Postemergence, 31 g ai/ha, scale 0 to 100
[15] = Postemergence, 62 g ai/ha, scale 0 to 100, 0 no effect, 100 complete control
[16] = Preemergence, 8 g ai/ha, scale 0 to 100 (0 no effect, 100 complete control)
[17] = Preemergence, 31 g ai/ha, scale 0 to 100 (0 no effect, 100 complete control)
[18] = Preemergence, 62 g ai/ha, 0 to 100 scale, 0 no effect, 100 complete control
[19] = Preemergence, 16 g ai/ha, scale 0 to 100
[20] = 16 g ai/ha, postemergence, 0-100 scale

Q: With Cc1nn(C)c(=O)c(-n2nc(-c3ccc(Br)cc3)cc2C)c1O [Compound 81] as the compound, how does the “Bermudagrass plant response rating” value [1, 12] read?
A: 40

Q: And the “Plant response rating, Bermudagrass” value [1, 13]?
A: 95

Q: And the “Plant response rating, Bermudagrass” value [1, 14]?
A: 100

Q: What about the “Plant response rating, Bermudagrass” value [1, 15] of the same compound?
A: 100

Q: What about the “Bermudagrass plant response rating” value [1, 16] of the same compound?
A: 0

Q: And the “Bermudagrass plant response rating” value ([1]; Preemergence, 16 g ai/ha, scale 0 to 100 (0 no effect, 100 complete control))?
A: 50

Q: And the “Plant response rating, Bermudagrass” value [1, 17]?
A: 100

Q: And the “Plant response rating, Bermudagrass” value [1, 18]?
A: 100

Q: What about the “Bromegrass, Downy plant response rating” value [2, 12] of the same compound?
A: 0

Q: What about the “Plant response rating, Bromegrass, Downy” value [2, 13] of the same compound?
A: 45

Q: And the “Plant response rating, Bromegrass, Downy” value [2, 14]?
A: 50

Q: And the “Plant response rating, Bromegrass, Downy” value [2, 15]?
A: 70

Q: What about the “Bromegrass, Downy plant response rating” value [2, 16] of the same compound?
A: 20

Q: And the “Plant response rating, Bromegrass, Downy” value [2, 17]?
A: 70

Q: What about the “Plant response rating, Bromegrass, Downy” value [2, 18] of the same compound?
A: 85

Q: What about the “Bromegrass, Downy plant response rating” value [2, 19] of the same compound?
A: 70

Q: And the “Sunflower plant response rating” value ([3]; 8 g ai/ha, scale 0 to 100 (0 no effect, 100 complete control))?
A: 0

Q: What about the “Plant response rating, Sunflower” value ([3]; 31 g ai/ha, scale 0 to 100 (0 no effect, 100 complete control)) of the same compound?
A: 15

Q: And the “Plant response rating, Sunflower” value ([3]; 62 g ai/ha, 0 to 100 scale, 0 no effect, 100 complete control)?
A: 20

Q: And the “Sunflower plant response rating” value ([3]; 16 g ai/ha, scale 0 to 100)?
A: 0

Q: And the “Pigweed plant response rating” value [4, 12]?
A: 0

Q: What about the “Pigweed plant response rating” value [4, 20] of the same compound?
A: 0

Q: And the “Plant response rating, Pigweed” value [4, 14]?
A: 0

Q: What about the “Plant response rating, Pigweed” value [4, 15] of the same compound?
A: 0

Q: What about the “Pigweed plant response rating” value [4, 16] of the same compound?
A: 0

Q: And the “Plant response rating, Pigweed” value [4, 17]?
A: 0

Q: What about the “Plant response rating, Pigweed” value [4, 18] of the same compound?
A: 55

Q: What about the “Pigweed plant response rating” value [4, 19] of the same compound?
A: 0

Q: And the “Johnsongrass plant response rating” value [5, 12]?
A: 75

Q: And the “Johnsongrass plant response rating” value [5, 20]?
A: 95

Q: What about the “Plant response rating, Johnsongrass” value [5, 15] of the same compound?
A: 100

Q: And the “Johnsongrass plant response rating” value [5, 16]?
A: 60

Q: What about the “Plant response rating, Johnsongrass” value [5, 17] of the same compound?
A: 95

Q: What about the “Plant response rating, Johnsongrass” value [5, 18] of the same compound?
A: 95

Q: And the “Johnsongrass plant response rating” value [5, 19]?
A: 80

Q: What about the “Blackgrass plant response rating” value [6, 12] of the same compound?
A: 85

Q: What about the “Plant response rating, Blackgrass” value [6, 13] of the same compound?
A: 90

Q: And the “Plant response rating, Blackgrass” value [6, 14]?
A: 98

Q: What about the “Plant response rating, Blackgrass” value [6, 15] of the same compound?
A: 100

Q: And the “Blackgrass plant response rating” value [6, 16]?
A: 80

Q: What about the “Plant response rating, Blackgrass” value [6, 17] of the same compound?
A: 100

Q: What about the “Plant response rating, Blackgrass” value [6, 18] of the same compound?
A: 100

Q: And the “Blackgrass plant response rating” value [6, 19]?
A: 85

Q: What about the “Foxtail, Giant plant response rating” value [7, 12] of the same compound?
A: 80

Q: And the “Plant response rating, Foxtail, Giant” value [7, 13]?
A: 85

Q: What about the “Plant response rating, Foxtail, Giant” value [7, 14] of the same compound?
A: 98

Q: What about the “Plant response rating, Foxtail, Giant” value [7, 15] of the same compound?
A: 100

Q: And the “Foxtail, Giant plant response rating” value [7, 16]?
A: 80

Q: What about the “Plant response rating, Foxtail, Giant” value [7, 17] of the same compound?
A: 100

Q: And the “Plant response rating, Foxtail, Giant” value [7, 18]?
A: 100

Q: What about the “Foxtail, Giant plant response rating” value [7, 19] of the same compound?
A: 100

Q: What about the “Goosegrass plant response rating” value [8, 12] of the same compound?
A: 65

Q: And the “Goosegrass plant response rating” value [8, 20]?
A: 70

Q: And the “Plant response rating, Goosegrass” value [8, 14]?
A: 80

Q: What about the “Plant response rating, Goosegrass” value [8, 15] of the same compound?
A: 85

Q: And the “Goosegrass plant response rating” value [8, 16]?
A: 80

Q: And the “Plant response rating, Goosegrass” value [8, 17]?
A: 100

Q: And the “Plant response rating, Goosegrass” value [8, 18]?
A: 100

Q: What about the “Goosegrass plant response rating” value [8, 19] of the same compound?
A: 98

Q: And the “Velvetleaf plant response rating” value [9, 12]?
A: 0

Q: What about the “Velvetleaf plant response rating” value [9, 20] of the same compound?
A: 0

Q: And the “Plant response rating, Velvetleaf” value [9, 14]?
A: 0

Q: And the “Plant response rating, Velvetleaf” value [9, 15]?
A: 0

Q: What about the “Velvetleaf plant response rating” value [9, 16] of the same compound?
A: 0

Q: What about the “Plant response rating, Velvetleaf” value [9, 17] of the same compound?
A: 0

Q: What about the “Plant response rating, Velvetleaf” value [9, 18] of the same compound?
A: 0

Q: What about the “Velvetleaf plant response rating” value [9, 19] of the same compound?
A: 0

Q: And the “Wheat plant response rating” value [10, 12]?
A: 30

Q: What about the “Wheat plant response rating” value [10, 20] of the same compound?
A: 55

Q: What about the “Plant response rating, Wheat” value [10, 14] of the same compound?
A: 95

Q: What about the “Plant response rating, Wheat” value [10, 15] of the same compound?
A: 100

Q: What about the “Wheat plant response rating” value [10, 16] of the same compound?
A: 0

Q: And the “Plant response rating, Wheat” value [10, 17]?
A: 50

Q: And the “Plant response rating, Wheat” value [10, 18]?
A: 85

Q: What about the “Wheat plant response rating” value [10, 19] of the same compound?
A: 5

Q: And the “Soybean plant response rating” value (soybean (Glycine max); [12])?
A: 0

Q: What about the “Soybean plant response rating” value (soybean (Glycine max); [20]) of the same compound?
A: 0

Q: And the “Plant response rating, Soybean” value (soybean (Glycine max); [14])?
A: 15

Q: And the “Plant response rating, Soybean” value (soybean (Glycine max); [15])?
A: 20

Q: What about the “Soybean plant response rating” value (soybean (Glycine max); [16]) of the same compound?
A: 0

Q: What about the “Plant response rating, Soybean” value (soybean (Glycine max); [17]) of the same compound?
A: 0

Q: And the “Plant response rating, Soybean” value (soybean (Glycine max); [18])?
A: 0

Q: And the “Soybean plant response rating” value (soybean (Glycine max); [19])?
A: 0

Q: What about the “Plant response rating, Foxtail, Giant” value ([11]; Postemergence, 31 g ai/ha, 0 to 100 scale (0 no effect, 100 complete control)) of the same compound?
A: 80

Q: And the “Plant response rating, Foxtail, Giant” value ([11]; Postemergence, 125 g ai/ha, 0 to 100 scale, 0 no effect, 100 complete control)?
A: 100

Q: What about the “Plant response rating, Foxtail, Giant” value ([11]; Preemergence, 31 g ai/ha, 0 to 100 scale, 0 is no effect, 100 is complete control) of the same compound?
A: 80

Q: What about the “Plant response rating, Foxtail, Giant” value ([11]; Preemergence, 125 g ai/ha, 0 to 100 scale (0 no effect, 100 complete control)) of the same compound?
A: 100

From patent publication US20100267561A1, “HERBICIDAL PYRIDAZINONE DERIVATIVES” (priority 2007, published 2010)
